Measurements as given in the NIST ThermoML archive (doi:10.1016/j.jct.2017.03.006).
Numbers after ± are expanded uncertainties.

Columns and labels:
[1] = 100 kPa, Liquid, Concentric cylinders viscometry
[2] = xn = mol fraction of the nth substance listed; conditions: Liquid, x1 = 1; for mass density: Vibrating tube method; for viscosity: Concentric cylinders viscometry

In the case of `CCCCO` [butan-1-ol], the viscosity ([1]; 323.15 K) is reported as 1.406 ± 0.029 mPa·s and the viscosity ([1]; 333.15 K) is reported as 1.134 ± 0.024 mPa·s.
In the case of `CCCCO` [butan-1-ol] + Cc1ccc(C)c(C)c1, the mass density ([2]; 273.15 K, 100 kPa) is reported as 824.6 ± 0.7 kg/m3, the mass density ([2]; 273.15 K, 1000 kPa) is reported as 825.2 ± 0.7 kg/m3 and the mass density ([2]; 273.15 K, 5000 kPa) is reported as 827.7 ± 0.7 kg/m3. It also gave a mass density ([2]; 273.15 K, 10000 kPa) of 830.8 ± 0.7 kg/m3, a mass density ([2]; 273.15 K, 20000 kPa) of 836.7 ± 0.7 kg/m3 and a mass density ([2]; 273.15 K, 30000 kPa) of 842.3 ± 0.7 kg/m3. It also gave a mass density ([2]; 273.15 K, 40000 kPa) of 847.6 ± 0.8 kg/m3, a mass density ([2]; 273.15 K, 50000 kPa) of 852.5 ± 0.8 kg/m3 and a mass density ([2]; 273.15 K, 60000 kPa) of 857.2 ± 0.8 kg/m3. It also gave a mass density ([2]; 273.15 K, 70000 kPa) of 861.7 ± 0.8 kg/m3, a mass density ([2]; 273.15 K, 80000 kPa) of 866 ± 0.8 kg/m3 and a mass density ([2]; 273.15 K, 90000 kPa) of 870.1 ± 0.9 kg/m3. For the same compound, the mass density ([2]; 273.15 K, 100000 kPa) was 874 ± 0.9 kg/m3, the mass density ([2]; 273.15 K, 120000 kPa) was 881.5 ± 0.9 kg/m3 and the mass density ([2]; 273.15 K, 140000 kPa) was 888.5 ± 0.9 kg/m3. It also gave a viscosity ([2]; 293.15 K, 100 kPa) of 2.953 ± 0.06 mPa·s, a mass density ([2]; 293.15 K, 100 kPa) of 809.6 ± 0.7 kg/m3 and a mass density ([2]; 293.15 K, 1000 kPa) of 810.2 ± 0.7 kg/m3. For the same compound, the mass density ([2]; 293.15 K, 5000 kPa) was 813.1 ± 0.7 kg/m3, the mass density ([2]; 293.15 K, 10000 kPa) was 816.5 ± 0.7 kg/m3 and the mass density ([2]; 293.15 K, 20000 kPa) was 822.9 ± 0.7 kg/m3. For the same compound, the mass density ([2]; 293.15 K, 30000 kPa) was 829 ± 0.8 kg/m3, the mass density ([2]; 293.15 K, 40000 kPa) was 834.7 ± 0.8 kg/m3 and the mass density ([2]; 293.15 K, 50000 kPa) was 840 ± 0.8 kg/m3. The mass density ([2]; 293.15 K, 60000 kPa) was 845 ± 0.8 kg/m3, the mass density ([2]; 293.15 K, 70000 kPa) was 849.8 ± 0.8 kg/m3 and the mass density ([2]; 293.15 K, 80000 kPa) was 854.4 ± 0.9 kg/m3. The mass density ([2]; 293.15 K, 90000 kPa) was 858.7 ± 0.9 kg/m3, the mass density ([2]; 293.15 K, 100000 kPa) was 862.9 ± 0.9 kg/m3 and the mass density ([2]; 293.15 K, 120000 kPa) was 870.8 ± 0.9 kg/m3. For the same compound, the mass density ([2]; 293.15 K, 140000 kPa) was 878.2 ± 1 kg/m3, the viscosity ([2]; 303.15 K, 100 kPa) was 2.263 ± 0.046 mPa·s and the viscosity ([2]; 313.15 K, 100 kPa) was 1.769 ± 0.036 mPa·s. The mass density ([2]; 313.15 K, 100 kPa) was 794.1 ± 0.7 kg/m3, the mass density ([2]; 313.15 K, 1000 kPa) was 794.8 ± 0.7 kg/m3 and the mass density ([2]; 313.15 K, 5000 kPa) was 798 ± 0.7 kg/m3. The mass density ([2]; 313.15 K, 10000 kPa) was 801.8 ± 0.7 kg/m3, the mass density ([2]; 313.15 K, 20000 kPa) was 808.9 ± 0.7 kg/m3 and the mass density ([2]; 313.15 K, 30000 kPa) was 815.5 ± 0.8 kg/m3. The mass density ([2]; 313.15 K, 40000 kPa) was 821.6 ± 0.8 kg/m3, the mass density ([2]; 313.15 K, 50000 kPa) was 827.4 ± 0.8 kg/m3 and the mass density ([2]; 313.15 K, 60000 kPa) was 832.7 ± 0.8 kg/m3. The mass density ([2]; 313.15 K, 70000 kPa) was 837.8 ± 0.9 kg/m3, the mass density ([2]; 313.15 K, 80000 kPa) was 842.7 ± 0.9 kg/m3 and the mass density ([2]; 313.15 K, 90000 kPa) was 847.3 ± 0.9 kg/m3. The mass density ([2]; 313.15 K, 100000 kPa) was 851.7 ± 0.9 kg/m3, the mass density ([2]; 313.15 K, 120000 kPa) was 860 ± 1 kg/m3 and the mass density ([2]; 313.15 K, 140000 kPa) was 867.8 ± 1 kg/m3. The viscosity ([2]; 323.15 K, 100 kPa) was 1.406 ± 0.029 mPa·s, the viscosity ([2]; 333.15 K, 100 kPa) was 1.134 ± 0.024 mPa·s and the mass density ([2]; 333.15 K, 100 kPa) was 778 ± 0.7 kg/m3. It also gave a mass density ([2]; 333.15 K, 1000 kPa) of 778.8 ± 0.7 kg/m3, a mass density ([2]; 333.15 K, 5000 kPa) of 782.4 ± 0.7 kg/m3 and a mass density ([2]; 333.15 K, 10000 kPa) of 786.5 ± 0.7 kg/m3. It also gave a mass density ([2]; 333.15 K, 20000 kPa) of 794.4 ± 0.7 kg/m3, a mass density ([2]; 333.15 K, 30000 kPa) of 801.6 ± 0.8 kg/m3 and a mass density ([2]; 333.15 K, 40000 kPa) of 808.2 ± 0.8 kg/m3. It also gave a mass density ([2]; 333.15 K, 50000 kPa) of 814.4 ± 0.8 kg/m3, a mass density ([2]; 333.15 K, 60000 kPa) of 820.1 ± 0.8 kg/m3 and a mass density ([2]; 333.15 K, 70000 kPa) of 825.6 ± 0.9 kg/m3. For the same compound, the mass density ([2]; 333.15 K, 80000 kPa) was 830.7 ± 0.9 kg/m3, the mass density ([2]; 333.15 K, 90000 kPa) was 835.6 ± 0.9 kg/m3 and the mass density ([2]; 333.15 K, 100000 kPa) was 840.3 ± 1 kg/m3. The mass density ([2]; 333.15 K, 120000 kPa) was 849 ± 1 kg/m3 and the mass density ([2]; 333.15 K, 140000 kPa) was 857.1 ± 1.1 kg/m3.
